Reference: PubChem BioAssay AID1963826 (Molecular Pharmacology Branch, DTP, NCI, 2024)
pIC50: −log10 of the molar value.

System: 926638-142-R-J1-PDC complex spheroid viability
Test: Anticancer human tumor 926638-142-R-J1-PDC patient-derived endometrial carcinoma cell line growth inhibition [POLQ]
Settings: for pIC50: curve of first compound; for viability, T/C: stronger effect = lower value
Procedure, shortened: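 PDC + HUVEC + MSC complex spheroids; POLQ inhibitors ± partner drugs; top conc. at/near clinical Cmax, else 10 microM (SN-38 1 microM), half-log dilutions; 37 degrees C, 5% CO2.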

[1] = second compound 0.0316 µM, first compound 0.0316 µM
[2] = second compound 0.0316 µM, first compound 0.1 µM
[3] = second compound 0.0316 µM, first compound 0.316 µM
[4] = second compound 0.0316 µM, first compound 1 µM
[5] = second compound 0.0316 µM, first compound 3.16 µM
[6] = second compound 0.0316 µM, first compound 10 µM
[7] = second compound 0.1 µM, first compound 0.0316 µM
[8] = second compound 0.1 µM, first compound 0.1 µM
[9] = second compound 0.1 µM, first compound 0.316 µM
[10] = second compound 0.1 µM, first compound 1 µM
[11] = second compound 0.1 µM, first compound 3.16 µM
[12] = second compound 0.1 µM, first compound 10 µM
[13] = second compound 0.316 µM, first compound 0.0316 µM
[14] = second compound 0.316 µM, first compound 0.1 µM
[15] = second compound 0.316 µM, first compound 0.316 µM
[16] = second compound 0.316 µM, first compound 1 µM
[17] = second compound 0.316 µM, first compound 3.16 µM
[18] = second compound 0.316 µM, first compound 10 µM
[19] = second compound 1 µM, first compound 0.0316 µM
[20] = second compound 1 µM, first compound 0.1 µM
[21] = second compound 1 µM, first compound 0.316 µM
[22] = second compound 1 µM, first compound 1 µM
[23] = second compound 1 µM, first compound 3.16 µM
[24] = second compound 1 µM, first compound 10 µM
[25] = second compound 3.16 µM, first compound 0.0316 µM
[26] = second compound 3.16 µM, first compound 0.1 µM
[27] = second compound 3.16 µM, first compound 0.316 µM
[28] = second compound 3.16 µM, first compound 1 µM
[29] = second compound 3.16 µM, first compound 3.16 µM
[30] = second compound 3.16 µM, first compound 10 µM
[31] = second compound 10 µM, first compound 0.0316 µM
[32] = second compound 10 µM, first compound 0.1 µM
[33] = second compound 10 µM, first compound 0.316 µM
[34] = second compound 10 µM, first compound 1 µM
[35] = second compound 10 µM, first compound 3.16 µM
[36] = second compound 10 µM, first compound 10 µM
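Also: spheroids exposed to drugs for one week before readout.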
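For viability, T/C in this document: percent viability relative to DMSO vehicle control wells set as 100%.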

## COc1cccc2c1C(=O)c1c(O)c3c(c(O)c1C2=O)CC(O)(C(=O)CO)CC3OC1CC(N)C(O)C(C)O1 (centres undefined) + Cc1cccc(N(C)C(=O)C2C(O)CCN2c2nc(C)cc(C(F)(F)F)c2C#N)c1
Second compound 0.0316 µM
  pIC50: 6.88
Second compound 0.1 µM
  pIC50: 6.84
Second compound 0.316 µM
  pIC50: 6.86
Second compound 1 µM
  pIC50: 6.99
Second compound 3.16 µM
  pIC50: 6.94
Second compound 10 µM
  pIC50: 6.91
[1]
  viability, T/C: 76.8%
[2]
  viability, T/C: 59.4%
[3]
  viability, T/C: 21%
[4]
  viability, T/C: 2.89%
[5]
  viability, T/C: 0.19%
[6]
  viability, T/C: 0.26%
[7]
  viability, T/C: 68.6%
[8]
  viability, T/C: 65%
[9]
  viability, T/C: 18.5%
[10]
  viability, T/C: 3.26%
[11]
  viability, T/C: 0.2%
[12]
  viability, T/C: 0.33%
[13]
  viability, T/C: 79.3%
[14]
  viability, T/C: 61.9%
[15]
  viability, T/C: 19%
[16]
  viability, T/C: 2.18%
[17]
  viability, T/C: 0.15%
[18]
  viability, T/C: 0.25%
[19]
  viability, T/C: 71.6%
[20]
  viability, T/C: 50.4%
[21]
  viability, T/C: 17.4%
[22]
  viability, T/C: 2.2%
[23]
  viability, T/C: 0.14%
[24]
  viability, T/C: 0.24%
[25]
  viability, T/C: 82.1%
[26]
  viability, T/C: 54.8%
[27]
  viability, T/C: 15.1%
[28]
  viability, T/C: 2.08%
[29]
  viability, T/C: 0.25%
[30]
  viability, T/C: 0.32%
[31]
  viability, T/C: 70.5%
[32]
  viability, T/C: 58.4%
[33]
  viability, T/C: 14.2%
[34]
  viability, T/C: 1.62%
[35]
  viability, T/C: 0.26%
[36]
  viability, T/C: 0.24%

## O=c1[nH]cc(F)c(=O)[nH]1 + Cc1cccc(N(C)C(=O)C2C(O)CCN2c2nc(C)cc(C(F)(F)F)c2C#N)c1
Second compound 0.0316 µM
  pIC50: < 5.00
Second compound 0.1 µM
  pIC50: < 5.00
Second compound 0.316 µM
  pIC50: < 5.00
Second compound 1 µM
  pIC50: < 5.00
Second compound 3.16 µM
  pIC50: < 5.00
Second compound 10 µM
  pIC50: < 5.00
[1]
  viability, T/C: 106%
[2]
  viability, T/C: 98.6%
[3]
  viability, T/C: 96.6%
[4]
  viability, T/C: 104%
[5]
  viability, T/C: 89.5%
[6]
  viability, T/C: 82.2%
[7]
  viability, T/C: 111%
[8]
  viability, T/C: 91.2%
[9]
  viability, T/C: 110%
[10]
  viability, T/C: 82.1%
[11]
  viability, T/C: 106%
[12]
  viability, T/C: 71.4%
[13]
  viability, T/C: 88.3%
[14]
  viability, T/C: 80.2%
[15]
  viability, T/C: 98.8%
[16]
  viability, T/C: 83.5%
[17]
  viability, T/C: 88.1%
[18]
  viability, T/C: 75%
[19]
  viability, T/C: 81.2%
[20]
  viability, T/C: 104%
[21]
  viability, T/C: 88.4%
[22]
  viability, T/C: 97.5%
[23]
  viability, T/C: 81.4%
[24]
  viability, T/C: 81.5%
[25]
  viability, T/C: 98.7%
[26]
  viability, T/C: 89.4%
[27]
  viability, T/C: 82.7%
[28]
  viability, T/C: 90.9%
[29]
  viability, T/C: 91%
[30]
  viability, T/C: 92.8%
[31]
  viability, T/C: 81.5%
[32]
  viability, T/C: 98.4%
[33]
  viability, T/C: 90%
[34]
  viability, T/C: 95.2%
[35]
  viability, T/C: 107%
[36]
  viability, T/C: 80.8%
